Measured values taken from patent US10870638B2, “Pyridazinone compound or its salt, and herbicide containing it” (ISHIHARA SANGYO KAISHA, LTD., priority 2016, dated 2020).

Assays:
Format in all cases: in vivo
Details in all cases: active ingredient amount 31 g/ha, 14th day after application
[1] = tested on: redroot pigweed (Amaranthus retroflexus L.); assay: Test Example 1: foliar treatment, growth inhibition rate on 14th day
Outline: (§1)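 Visual 0–100% inhibition scoring (100 = complete kill) at 14 days after foliar treatment of soil-grown seedlings at species-specific leaf stages, with the compound sprayed as a wettable powder or emulsifiable concentrate dilution.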

[2] = tested on: barnyardgrass (Echinochloa crus-qalli L.); assay: as above
Outline: as §1

[3] = tested on: green foxtail (Setaria viridis L.); assay: as above
Outline: as §1

[4] = tested on: italian ryegrass (Lolium multiflorum Lam.); assay: as above
Outline: as §1

[5] = tested on: wheat (Triticum aestivum L.); assay: as above
Outline: as §1

rice (Oryza sativa L.) [6] = assay: as above
Outline: as §1

[7] = tested on: crabgrass (Digitaria sanquinalis L.); assay: as above
Outline: as §1

corn (Zea mays L.) [8] = assay: as above
Outline: as §1

[9] = tested on: wild oat (Avena fatua L.); assay: as above
Outline: as §1

[10] = tested on: soybean (Glycine max Merr.); assay: as above
Outline: as §1

[11] = tested on: barnyardgrass (Echinochloa crus-qalli L.); assay: Test Example 2: soil application on the day after sowing, growth inhibition rate on 14th day
Text: (§2) Upland field soil was put into a 1/300,000 hectare pot, and seeds of various plants (barnyardgrass (Echinochloa crus-qalli L.), crabgrass (Digitaris sanquinalis L.), green foxtail (Setaria viridis L.), redroot pigweed (Amaranthus retroflexus L.), prickly sida (Sida spinosa L.), velvetleaf (Abutilon theophrasti MEDIC.), rice (Oryza sativa L.), corn (Zea mays L.), wheat (Triticum aestivum L.), soybean (Glycine max Merr.)) were sown. On the day after sowing, wettable powders or emulsifiable concentrates of the compounds of the present invention prepared in accordance with a conventional preparation method, were weighed so as to achieve the prescribed active ingredient amounts, and diluted with water in an amount corresponding to 1,000 liters per 1 hectare, followed by soil application by a small sprayer.
(§3) On the 14th day after the application, the state of growth of the respective plants was visually observed, and the herbicidal effect was evaluated by a growth inhibition rate (%) of 0 (equivalent to the non-treated area) to 100 (complete kill).

[12] = tested on: green foxtail (Setaria viridis L.); assay: as above
Text: as §2, §3

[13] = tested on: wheat (Triticum aestivum L.); assay: as above
Text: as §2, §3

rice (Oryza sativa L.) [14] = assay: as above
Text: as §2, §3

[15] = tested on: crabgrass (Digitaris sanquinalis L.); assay: as above
Text: as §2, §3

[16] = tested on: velvetleaf (Abutilon theophrasti MEDIC.); assay: as above
Text: as §2, §3

[17] = tested on: prickly sida (Sida spinosa L.); assay: as above
Text: as §2, §3

corn (Zea mays L.) [18] = assay: as above
Text: as §2, §3

[19] = tested on: soybean (Glycine max Merr.); assay: as above
Text: as §2, §3

[20] = tested on: redroot pigweed (Amaranthus retroflexus L.); assay: as above
Text: as §2, §3

[21] = visual, 0 = non-treated, 100 = complete kill

Structure (SMILES)	Growth inhibition rate (%) Redroot pigweed [1]	Growth inhibition rate (%) Barnyardgrass [2]	Growth inhibition rate (%) Green foxtail [3]	Growth inhibition rate (%) Italian ryegrass [4]	Growth inhibition rate (%) Wheat [5]	Growth inhibition rate (%) Rice (rice (Oryza sativa L.) [6])	Growth inhibition rate (%) Crabgrass [7]	Growth inhibition rate (%) Corn (corn (Zea mays L.) [8])	Growth inhibition rate (%) Wild oat [9]	Growth inhibition rate (%) Soybean [10]	Growth inhibition rate (%) Barnyardgrass [11]	Growth inhibition rate (%) Wheat [13]	Growth inhibition rate (%) Rice (rice (Oryza sativa L.) [14])	Growth inhibition rate (%) Velvetleaf [16]	Growth inhibition rate (%) Corn (corn (Zea mays L.) [18])	Growth inhibition rate (%) Redroot pigweed [1, 21]	Growth inhibition rate (%) Barnyardgrass [2, 21]	Growth inhibition rate (%) Green foxtail [3, 21]	Growth inhibition rate (%) Italian ryegrass [4, 21]	Growth inhibition rate (%) Wheat [5, 21]	also measured
Cc1ccc(Sc2ncc(C(F)(F)F)cc2Cl)cc1-c1c(O)c(C)nn(C)c1=O [1-2, 4-(5-((3-chloro-5-(trifluoromethyl)pyridin-2-yl)thio)-2-methylphenyl)-5-hydroxy-2,6-dimethylpyridazin-3(2H)-one]	0%	100%	99%	99%	20%	10%	99%	95%	95%	0%											inhibition at 31 g/ha ([11]; Echinochloa): 98%; inhibition at 31 g/ha ([12]; Setaria viridis): 99%; inhibition at 31 g/ha ([13]; Triticum aestivum): 10%; inhibition at 31 g/ha (rice (Oryza sativa L.) [14]; Oryza sativa): 20%; inhibition at 31 g/ha ([15]; Digitaria sanguinalis): 98%; inhibition at 31 g/ha ([16]; Abutilon theophrasti): 0%; inhibition at 31 g/ha ([17]; Sida spinosa): 30%; inhibition at 31 g/ha (corn (Zea mays L.) [18]; Zea mays): 20%; inhibition at 31 g/ha ([19]; Glycine max): 0%
CCc1ccc(Oc2nc3cc(Cl)ccc3o2)cc1-c1c(O)c(C)nn(C)c1=O [Compound 2-162]	10%	100%	99%	100%	99%	100%	100%	90%	100%	0%	90%	20%	0%	0%	0%						Growth inhibition rate (%) Green foxtail [12]: 20%; Growth inhibition rate (%) Crabgrass [15]: 20%; Growth inhibition rate (%) Soybean [19]: 0%
CCn1ncc(O)c(-c2cc(Oc3nc4ccc(Cl)cc4o3)ccc2C)c1=O [Compound 2-167]	0%	100%	100%	80%	25%	60%	99%	90%	45%	30%	40%	0%	0%	0%	0%						Growth inhibition rate (%) Green foxtail [12]: 100%; Growth inhibition rate (%) Crabgrass [15]: 99%; Growth inhibition rate (%) Prickly sida [17]: 0%; Growth inhibition rate (%) Soybean [19]: 0%
Cc1ccc(Oc2cnc3cc(Cl)ccc3n2)cc1-c1c(O)c(C)nn(C)c1=O [Compound 3-1]	50%	100%	100%	100%	98%	100%	99%	10%	98%	0%	99%	25%	40%	0%	20%						Growth inhibition rate (%) Redroot pigweed [20]: 0%; Growth inhibition rate (%) Prickly sida [17]: 0%
Cc1ccc(Oc2cnc3cc(Cl)ccc3n2)cc1-c1c(OCC#N)c(C)nn(C)c1=O [Compound 3-78]																0%	99%	98%	10%	0%	Growth inhibition rate (%) Rice (rice (Oryza sativa L.) [6]; [21]): 0%; Growth inhibition rate (%) Crabgrass [7, 21]: 93%; Growth inhibition rate (%) Corn (corn (Zea mays L.) [8]; [21]): 0%; Growth inhibition rate (%) Wild oat [9, 21]: 40%; Growth inhibition rate (%) Soybean [10, 21]: 0%
Cc1ccc(Oc2cnc3cc(Cl)ccc3n2)cc1-c1c(OC(=O)CC2CCCCC2)c(C)nn(C)c1=O [Compound 3-80]																0%	100%	99%	93%	90%	Growth inhibition rate (%) Rice (rice (Oryza sativa L.) [6]; [21]): 0%; Growth inhibition rate (%) Crabgrass [7, 21]: 95%; Growth inhibition rate (%) Corn (corn (Zea mays L.) [8]; [21]): 25%; Growth inhibition rate (%) Wild oat [9, 21]: 99%; Growth inhibition rate (%) Soybean [10, 21]: 25%
Cc1ccc(Oc2cnc3cc(Cl)ccc3n2)cc1-c1c(OCOCCCl)c(C)nn(C)c1=O [Compound 3-81]																0%	99%	99%	95%	25%	Growth inhibition rate (%) Rice (rice (Oryza sativa L.) [6]; [21]): 0%; Growth inhibition rate (%) Crabgrass [7, 21]: 93%; Growth inhibition rate (%) Corn (corn (Zea mays L.) [8]; [21]): 0%; Growth inhibition rate (%) Wild oat [9, 21]: 95%; Growth inhibition rate (%) Soybean [10, 21]: 0%
